Assay results from patent US20250243210A1, “CRBN E3 LIGASE LIGAND COMPOUND, PROTEIN DEGRADER DEVELOPED BASED THEREON AND THEIR APPLICATIONS” (GLUETACS THERAPEUTICS (SHANGHAI) CO., LTD., priority 2021, published 2025).
Where two headings read alike, the source gives them in different places.

Legend:
MM.1R = experiment: CCK-8 tumor cell proliferation, MM.1R; format: cell-based; conditions: 72 h, read-out: IC50 for inhibiting the proliferation of tumor cells, MM.1R
Experimental: (§1) Determination of half inhibitory concentration (IC50) of the compounds against tumor cells:
(§2) The tumor cells used herein were cultured in a cell culture medium listed in table 6 at 37° C. in an incubator with 5% CO2.
(§3) After the cells were treated with the compounds of the present disclosure for a period of time (the treatment times listed in Table 7), the cell viability detection reagent was added to the culture medium for cell viability assessment according to the instructions provided with the CCK-8 kit. […] The growth inhibition of the compounds of the present disclosure on cells was plotted by Prism Graphpad software, and the IC50 values of the compounds of the present disclosure were calculated therefrom.

Hep3B2.1-7 = experiment: CCK-8 tumor cell proliferation, Hep3B2.1-7; format: cell-based, Human; conditions: Hep3B2.1-7, 96 h, read-out: IC50 for inhibiting the proliferation of tumor cells, Hep3B2.1-7
Experimental: as §1
(§4) The tumor cells used herein were cultured in a cell culture medium listed in table 6 at 37° C. in an incubator with 5% CO2. Prior to experimentation, all cells used were correctly identified by STR profiling, and tested negative for mycoplasma through routine screenings.
(§5) IC50 values of the compounds of the present disclosure (including the compounds in Table 4 and compounds of examples 1-72) were measured using the Meilun Cell Counting Kit-S kit from Dalian Meilun Biotech Co., Ltd. Assay details are as follows: tumor cells were seeded in a 96-well plate at a density listed in Table 7. After 24 h, 100 μL of the inoculated cells were treated with 0.5 μL of the compounds of the present disclosure (including the compounds in Table 4 and compounds of examples 1-72) at 10 different successively decreasing concentrations (starting at the highest concentration of 10 μM; 5-fold serial dilutions). After the cells were treated with the compounds of the present disclosure for a period of time (the treatment times listed in Table 7), the cell viability detection reagent was added to the culture medium for cell viability assessment according to the instructions provided with the CCK-8 kit. […] The growth inhibition of the compounds of the present disclosure on cells was plotted by Prism Graphpad software, and the IC50 values of the compounds of the present disclosure were calculated therefrom.

MGC80-3 = experiment: CCK-8 tumor cell proliferation, MGC80-3; format: cell-based, Human; conditions: read-out: IC50 for inhibiting the proliferation of tumor cells, MGC80-3
Experimental: as §1, §4, §5

LNcap = experiment: CCK-8 tumor cell proliferation, LNcap; format: cell-based, Human; conditions: 96 h, read-out: IC50 for inhibiting the proliferation of tumor cells, LNcap
Experimental: as §1, §4, §5

DU-145 = experiment: CCK-8 tumor cell proliferation, DU-145; format: cell-based, Human; conditions: DU-145, 96 h, read-out: IC50 for inhibiting the proliferation of tumor cells, DU-145
Experimental: as §1, §2, §3

WSU-DLCL2 = experiment: CCK-8 tumor cell proliferation, WSU-DLCL2; format: cell-based, Human; conditions: read-out: IC50 for inhibiting the proliferation of tumor cells, WSU-DLCL2
Experimental: as §1, §2, §3

[1] = Homo sapiens, MGC-803, MGC80-3, 96 h
[2] = Homo sapiens, WSUDLCL2, WSU-DLCL2, 96 h

Structure (SMILES)	IC50 (MM.1R) [nM]	IC50 (Hep3B2.1-7; Homo sapiens) [nM]	IC50 (MGC80-3; [1]) [nM]	IC50 (LNcap; Homo sapiens) [nM]	IC50 (DU-145) [nM]	IC50 (MGC80-3; MGC80-3, 96 h) [nM]	IC50 (LNcap) [nM]	IC50 (WSU-DLCL2; WSU-DLCL2, 96 h) [nM]	IC50 (DU-145; Homo sapiens) [nM]	IC50 (WSU-DLCL2; [2]) [nM]	IC50 (Hep3B2.1-7) [nM]
CC1(C)[C@H](NC(=O)c2ccc(N3CCC(CN4C5CCC4CN(c4ccc6c(c4)C(=O)N(C4CCC(=O)NC4=O)C6=O)C5)CC3)nc2)C(C)(C)[C@H]1Oc1ccc(C#N)c(Cl)c1 (some centres unmarked) [GT-03426, N-((1r,3r)-3-(3-chloro-4-cyanophenoxy)-2,2,4,4-tetramethylcyclobutyl)-6-(4-((3-(2-(2,6-dioxopiperidin-3-yl)-1,3-dioxoisoindolin-5-yl)-3,8-diazabicyclo[3.2.1]octan-8-yl)methyl)piperidin-1-yl)nicotinamide]	100 to 500	≤ 50	50 to 100	50 to 100	–	–	–	–	–	–	–
N#Cc1ccc(OC2CCC(NC(=O)c3ccc(N4CC5CCC(C4)N5CC4CCN(c5cc6c(cc5F)C(=O)N(C5CCC(=O)NC5=O)C6=O)CC4)nn3)CC2)cc1Cl (centres unmarked) [GT-03450, N-((1r,4r)-4-(3-chloro-4-cyanophenoxy)cyclohexyl)-6-(8-((1-(2-(2,6-dioxopiperidin-3-yl)-6-fluoro-1,3-dioxoisoindolin-5-yl)piperidin-4-yl)methyl)-3,8-diazabicyclo[3.2.1]octan-3-yl)pyridazine-3-carboxamide]	100 to 500	–	–	–	1000 to 5000	100 to 500	100 to 500	500 to 1000	–	–	–
N#Cc1ccc(OC2CCC(NC(=O)c3ccc(N4CCC(CN5C6CC5CN(c5ccc7c(c5)C(=O)N(C5CCC(=O)NC5=O)C7=O)C6)CC4)nn3)CC2)cc1Cl (centres unmarked) [GT-03490, N-((1r,4r)-4-(3-chloro-4-cyanophenoxy)cyclohexyl)-6-(4-((3-(2-(2,6-dioxopiperidin-3-yl)-1,3-dioxoisoindolin-5-yl)-3,6-diazabicyclo[3.1.1]heptan-6-yl)methyl)piperidin-1-yl)pyridazine-3-carboxamide]	100 to 500	–	–	–	1000 to 5000	100 to 500	100 to 500	100 to 500	–	–	–
CC1(C)[C@H](NC(=O)c2ccc(N3CCC(CN4C5CCC4CN(c4cc6c(cc4F)C(=O)N(C4CCC(=O)NC4=O)C6=O)C5)CC3)nc2)C(C)(C)[C@H]1Oc1ccc(C#N)c(Cl)c1 (some centres unmarked) [GT-03482, N-((1r,3r)-3-(3-chloro-4-cyanophenoxy)-2,2,4,4-tetramethylcyclobutyl)-6-(4-((3-(2-(2,6-dioxopiperidin-3-yl)-6-fluoro-1,3-dioxoisoindolin-5-yl)-3,8-diazabicyclo[3.2.1]octan-8-yl)methyl)piperidin-1-yl)nicotinamide]	100 to 500	100 to 500	50 to 100	50 to 100	–	–	–	–	100 to 500	100 to 500	–
CC1(C)[C@H](NC(=O)c2ccc(N3CCC(CN4C5CC4CN(c4cc6c(cc4F)C(=O)N(C4CCC(=O)NC4=O)C6=O)C5)CC3)nc2)C(C)(C)[C@H]1Oc1ccc(C#N)c(Cl)c1 (some centres unmarked) [GT-03404, N-((1r,3r)-3-(3-chloro-4-cyanophenoxy)-2,2,4,4-tetramethylcyclobutyl)-6-(4-((3-(2-(2,6-dioxopiperidin-3-yl)-6-fluoro-1,3-dioxoisoindolin-5-yl)-3,6-diazabicyclo[3.1.1]heptan-6-yl)methyl)piperidin-1-yl)nicotinamide]	–	100 to 500	100 to 500	500 to 1000	–	–	–	–	–	–	–
N#Cc1ccc(OC2CCC(NC(=O)c3ccc(N4CCC(CN5C6CCC5CN(c5ccc7c(c5)C(=O)N(C5CCC(=O)NC5=O)C7=O)C6)CC4)nn3)CC2)cc1Cl (centres unmarked) [GT-03489, N-((1r,4r)-4-(3-chloro-4-cyanophenoxy)cyclohexyl)-6-(4-((3-(2-(2,6-dioxopiperidin-3-yl)-1,3-dioxoisoindolin-5-yl)-3,8-diazabicyclo[3.2.1]octan-8-yl)methyl)piperidin-1-yl)pyridazine-3-carboxamide]	500 to 1000	–	–	–	1000 to 5000	100 to 500	100 to 500	100 to 500	–	–	100 to 500
CC1(C)[C@H](NC(=O)c2ccc(N3CCC(CN4CC5CC(C4)N5c4ccc5c(c4)C(=O)N(C4CCC(=O)NC4=O)C5=O)CC3)nc2)C(C)(C)[C@H]1Oc1ccc(C#N)c(Cl)c1 (some centres unmarked) [GT-03427, N-((1r,3r)-3-(3-chloro-4-cyanophenoxy)-2,2,4,4-tetramethylcyclobutyl)-6-(4-((6-(2-(2,6-dioxopiperidin-3-yl)-1,3-dioxoisoindolin-5-yl)-3,6-diazabicyclo[3.1.1]heptan-3-yl)methyl)piperidin-1-yl)nicotinamide]	–	–	100 to 500	500 to 1000	–	–	–	–	1000 to 5000	100 to 500	–
CC1(C)[C@H](NC(=O)c2ccc(N3CCC(CN4CC5CCC(C4)N5c4ccc5c(c4)C(=O)N(C4CCC(=O)NC4=O)C5=O)CC3)nc2)C(C)(C)[C@H]1Oc1ccc(C#N)c(Cl)c1 (some centres unmarked) [GT-03425, N-((1r,3r)-3-(3-chloro-4-cyanophenoxy)-2,2,4,4-tetramethylcyclobutyl)-6-(4-((8-(2-(2,6-dioxopiperidin-3-yl)-1,3-dioxoisoindolin-5-yl)-3,8-diazabicyclo[3.2.1]octan-3-yl)methyl)piperidin-1-yl)nicotinamide]	100 to 500	≤ 50	≤ 50	50 to 100	–	–	–	–	500 to 1000	50 to 100	–
N#Cc1ccc(OC2CCC(NC(=O)c3ccc(N4CCC(CN5C6CC5CN(c5cc7c(cc5F)C(=O)N(C5CCC(=O)NC5=O)C7=O)C6)CC4)nn3)CC2)cc1Cl (centres unmarked) [GT-03487, N-((1r,4r)-4-(3-chloro-4-cyanophenoxy)cyclohexyl)-6-(4-((3-(2-(2,6-dioxopiperidin-3-yl)-6-fluoro-1,3-dioxoisoindolin-5-yl)-3,6-diazabicyclo[3.1.1]heptan-6-yl)methyl)piperidin-1-yl)pyridazine-3-carboxamide]	100 to 500	–	–	–	1000 to 5000	100 to 500	100 to 500	100 to 500	–	–	–
CC1(C)[C@H](NC(=O)c2ccc(N3CCC(CN4C5CC4CN(c4ccc6c(c4)C(=O)N(C4CCC(=O)NC4=O)C6=O)C5)CC3)nc2)C(C)(C)[C@H]1Oc1ccc(C#N)c(Cl)c1 (some centres unmarked) [GT-03471, N-((1r,3r)-3-(3-chloro-4-cyanophenoxy)-2,2,4,4-tetramethylcyclobutyl)-6-(4-((3-(2-(2,6-dioxopiperidin-3-yl)-1,3-dioxoisoindolin-5-yl)-3,6-diazabicyclo[3.1.1]heptan-6-yl)methyl)piperidin-1-yl)nicotinamide]	–	100 to 500	100 to 500	500 to 1000	–	–	–	–	–	1000 to 5000	–
N#Cc1ccc(OC2CCC(NC(=O)c3ccc(N4C5CC4CN(CC4CCN(c6cc7c(cc6F)C(=O)N(C6CCC(=O)NC6=O)C7=O)CC4)C5)nn3)CC2)cc1Cl (centres unmarked) [GT-03451, N-((1r,4r)-4-(3-chloro-4-cyanophenoxy)cyclohexyl)-6-(3-((1-(2-(2,6-dioxopiperidin-3-yl)-6-fluoro-1,3-dioxoisoindolin-5-yl)piperidin-4-yl)methyl)-3,6-diazabicyclo[3.1.1]heptan-6-yl)pyridazine-3-carboxamide]	100 to 500	–	–	–	1000 to 5000	500 to 1000	100 to 500	100 to 500	–	–	–
